Assay results as given in paper PMC10092844, “Inhibition profile of trifludimoxazin towards PPO2 target site mutations” (Pest Management Science, 2022).
Positions count from the first letter of the chain named.

Columns and labels:
PPO2 R128I ΔG210 = target: T1, PPO2 R128I ΔG210 (Amaranthus tuberculatus, UniProt Q0NZW9, DEL210-210/R128I); assay: biochemical; format: biochemical
T1 sequence (Q0NZW9 with tags, fused parts or gaps R128I/DEL210-210): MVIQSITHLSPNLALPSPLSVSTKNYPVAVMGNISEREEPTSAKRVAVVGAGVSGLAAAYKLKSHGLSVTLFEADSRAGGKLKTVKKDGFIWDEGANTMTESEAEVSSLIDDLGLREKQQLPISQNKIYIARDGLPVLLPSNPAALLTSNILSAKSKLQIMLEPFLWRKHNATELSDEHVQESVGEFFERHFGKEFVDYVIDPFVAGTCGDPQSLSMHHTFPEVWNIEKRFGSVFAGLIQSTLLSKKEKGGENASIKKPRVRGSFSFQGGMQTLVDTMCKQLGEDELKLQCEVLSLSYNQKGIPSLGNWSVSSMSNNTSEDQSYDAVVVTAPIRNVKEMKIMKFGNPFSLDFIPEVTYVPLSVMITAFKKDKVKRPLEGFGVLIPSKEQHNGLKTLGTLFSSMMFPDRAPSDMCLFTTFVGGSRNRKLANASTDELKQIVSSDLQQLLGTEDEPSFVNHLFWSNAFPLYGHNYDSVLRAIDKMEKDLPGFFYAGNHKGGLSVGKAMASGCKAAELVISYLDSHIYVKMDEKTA

PPO2 R128N ΔG210 = target: T2, PPO2 R128N ΔG210 (Amaranthus tuberculatus, UniProt Q0NZW9, DEL210-210/R128N); assay: biochemical; format: biochemical
T2 sequence (Q0NZW9 with tags, fused parts or gaps R128N/DEL210-210): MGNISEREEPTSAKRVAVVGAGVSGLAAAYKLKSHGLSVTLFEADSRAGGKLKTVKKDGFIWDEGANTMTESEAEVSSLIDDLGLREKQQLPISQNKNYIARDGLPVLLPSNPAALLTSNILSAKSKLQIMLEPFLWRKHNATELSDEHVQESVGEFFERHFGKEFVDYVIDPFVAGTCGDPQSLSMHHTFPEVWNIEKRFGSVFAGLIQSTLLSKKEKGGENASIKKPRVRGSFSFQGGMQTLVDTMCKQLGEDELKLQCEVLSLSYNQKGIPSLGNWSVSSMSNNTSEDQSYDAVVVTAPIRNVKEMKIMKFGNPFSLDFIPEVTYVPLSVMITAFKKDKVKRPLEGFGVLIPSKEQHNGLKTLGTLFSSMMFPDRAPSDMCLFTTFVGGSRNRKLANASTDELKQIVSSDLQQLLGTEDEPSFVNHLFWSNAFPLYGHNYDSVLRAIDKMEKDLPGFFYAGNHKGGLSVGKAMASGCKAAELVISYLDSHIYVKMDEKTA

PPO2 R128A ΔG210 = target: T3, PPO2 R128A ΔG210 (Amaranthus tuberculatus, UniProt Q0NZW9, DEL210/R128A); assay: biochemical; format: biochemical
T3 sequence (Q0NZW9 with tags, fused parts or gaps R128A/DEL210): T2 sequence (Q0NZW9 with tags, fused parts or gaps R128N/DEL210-210) with N98A

[1] = target: T4, PPO2 R128C ΔG210 in Escherichia coli hemG (Amaranthus tuberculatus, UniProt Q0NZW9, DEL210/R128C, cells depend on it); format: cell-based; details: read-out: IC50 (E. coli hemG growth)
T4 sequence (Q0NZW9 with tags, fused parts or gaps R128C/DEL210): T2 sequence (Q0NZW9 with tags, fused parts or gaps R128N/DEL210-210) with N98C

[2] = target: T5, PPO2 R128H ΔG210 in Escherichia coli hemG (Amaranthus tuberculatus, UniProt Q0NZW9, DEL210/R128H, cells depend on it); format: cell-based; details: read-out: IC50 (E. coli hemG growth)
T5 sequence (Q0NZW9 with tags, fused parts or gaps R128H/DEL210): T1 sequence (Q0NZW9 with tags, fused parts or gaps R128I/DEL210-210) with I128H

Row | Structure (SMILES) | IC50 (PPO2 R128I ΔG210) | IC50 (PPO2 R128N ΔG210) | IC50 (PPO2 R128A ΔG210) | IC50 [1] | IC50 [2] | Resistance factor (PPO2 R128I ΔG210) | Resistance factor (PPO2 R128N ΔG210) | Resistance factor (PPO2 R128A ΔG210)
1 | CS(=O)(=O)NC(=O)c1cc(Oc2ccc(C(F)(F)F)cc2Cl)ccc1[N+](=O)[O-] [Fomesafen, fomesafen] | > 10000 nM | > 10000 nM | > 10000 nM | – | – | – | – | –
2 | CCOC(=O)C(C)OC(=O)c1cc(Oc2ccc(C(F)(F)F)cc2Cl)ccc1[N+](=O)[O-] (centres unmarked) [Lactofen, lactofen] | 1950 nM | > 10000 nM | – | > 10000 nM | > 10000 nM | – | – | –
3 | CC(C)N(C)S(=O)(=O)NC(=O)c1cc(-n2c(=O)cc(C(F)(F)F)n(C)c2=O)c(F)cc1Cl [Saflufenacil, saflufenacil] | > 10000 nM | > 10000 nM | > 10000 nM | > 10000 nM | > 10000 nM | – | – | –
4 | C#CCN1C(=O)C(F)(F)Oc2cc(F)c(-n3c(=O)n(C)c(=S)n(C)c3=O)cc21 [Trifludimoxazin, trifludimoxazin] | 99.3 nM | 175 nM | 33 nM | 46.5 nM | 90 nM | 405 | 714 | 135
